Values joined by “and” are separate entries in the source; they are usually repeats but may differ in a detail not shown here. Equal values may be shown once. Inconclusive results and toxic doses are left out. Rule as the data show it: active = T/C of 150% or more; inactive = T/C below 125%.
System: L1210 leukemia ip in BDF1 mice, survival T/C
Assay: NCI In Vivo Anticancer Drug Screen. Data for tumor model L1210 Leukemia (intraperitoneal) in B6D2F1 (BDF1) mice
Conditions: endpoint: mean survival time, higher = longer survival
Summary of the method: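 Antitumor effect is assessed in tumor-bearing animals. Survival in the compound arm is compared with a vehicle-dosed control arm and expressed as their quotient.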

[1] = dose: 100.0 mg/kg/injection, schedule: Q04DX003 (ip), vehicle: Klucel (hydroxypropylcellulose) (HPC)
[2] = dose: 200.0 mg/kg/injection, schedule: Q04DX003 (ip), vehicle: Klucel (hydroxypropylcellulose) (HPC)
[3] = dose: 400.0 mg/kg/injection, schedule: Q04DX003 (ip), vehicle: Klucel (hydroxypropylcellulose) (HPC)
[4] = dose: 25.0 mg/kg/injection, schedule: Q01DX009 (ip), vehicle: saline with Tween-80
[5] = dose: 100.0 mg/kg/injection, schedule: Q04DX003 (ip), vehicle: saline with Tween-80
[6] = dose: 100.0 mg/kg/injection, schedule: Q04DX003 (ip), vehicle: saline
[7] = dose: 100.0 mg/kg/injection, schedule: Q01DX009 (ip), vehicle: Klucel (hydroxypropylcellulose) (HPC)
[8] = dose: 200.0 mg/kg/injection, schedule: Q01DX009 (ip), vehicle: Klucel (hydroxypropylcellulose) (HPC)
[9] = dose: 100.0 mg/kg/injection, schedule: Q01DX001 (ip), vehicle: carboxymethylcellulose (CMC)
[10] = dose: 200.0 mg/kg/injection, schedule: Q01DX001 (ip), vehicle: carboxymethylcellulose (CMC)
[11] = dose: 400.0 mg/kg/injection, schedule: Q01DX001 (ip), vehicle: carboxymethylcellulose (CMC)
[12] = dose: 75.0 mg/kg/injection, schedule: Q01DX001 (ip), vehicle: saline
[13] = dose: 150.0 mg/kg/injection, schedule: Q01DX001 (ip), vehicle: saline
[14] = dose: 100.0 mg/kg/injection, schedule: Q04DX002 (ip), vehicle: saline with Tween-80
[15] = dose: 200.0 mg/kg/injection, schedule: Q04DX002 (ip), vehicle: saline with Tween-80
[16] = dose: 100.0 mg/kg/injection, schedule: Q01DX001 (ip), vehicle: saline
[17] = dose: 200.0 mg/kg/injection, schedule: Q01DX001 (ip), vehicle: saline

Measured: T/C

CN(Cc1cnc2nc(NCNC(=O)C3=C(O)[C@@]4(O)C(=O)C5=C(O)c6c(O)cccc6[C@@](C)(O)[C@H]5C[C@H]4[C@H](N(C)C)C3=O)nc(N)c2n1)c1ccc(C(=O)NC(CCC(=O)O)C(=O)O)cc1 (some centres not stated)
inactive: dose: 12.0 mg/kg/injection, schedule: Q01DX015 (ip), vehicle: saline 107 % of control | dose: 24.0 mg/kg/injection, schedule: Q01DX015 (ip), vehicle: saline 87 % of control
active: dose: 1.5 mg/kg/injection, schedule: Q01DX015 (ip), vehicle: saline 213 % of control | dose: 3.0 mg/kg/injection, schedule: Q01DX015 (ip), vehicle: saline 219 % of control | dose: 6.0 mg/kg/injection, schedule: Q01DX015 (ip), vehicle: saline 163 % of control

CCOC(=O)C1(C(=O)OCC)CCC(O)N1C(=O)c1cc2c(cc1[N+](=O)[O-])OCO2 (configuration not stated)
inactive: [1] 91 % of control | [2] 99 % of control | [3] 100 % of control

CO[Si](OC)(OC)OC
inactive: [4] 92 % of control | dose: 25.0 mg/kg/injection, schedule: Q04DX003 (ip), vehicle: saline 94 % of control | dose: 50.0 mg/kg/injection, schedule: Q01DX009 (ip), vehicle: saline with Tween-80 92 % of control | dose: 50.0 mg/kg/injection, schedule: Q04DX003 (ip), vehicle: saline 108 % of control | [5] 101 % of control | [6] 103 % of control

ClCCCC#Cc1ccccc1
inactive: dose: 50.0 mg/kg/injection, schedule: Q01DX009 (ip), vehicle: Klucel (hydroxypropylcellulose) (HPC) 101 % of control | dose: 100.0 mg/kg/injection, schedule: Q01DX001 (ip), vehicle: Klucel (hydroxypropylcellulose) (HPC) 90 % of control | [7] 101 % of control | dose: 200.0 mg/kg/injection, schedule: Q01DX001 (ip), vehicle: Klucel (hydroxypropylcellulose) (HPC) 98 % of control | [8] 110 % of control

CCc1ccc(N=Nc2ccc(NC)cc2)cc1
inactive: [9] 98 % of control | [10] 93 % of control | [11] 98 % of control

O=C1c2ccccc2-c2c(N=Cc3ccc4c(c3)OCO4)c(Br)cc(Br)c21
inactive: dose: 100.0 mg/kg/injection, schedule: Q01DX001 (ip), vehicle: other 93 % of control | dose: 200.0 mg/kg/injection, schedule: Q01DX001 (ip), vehicle: other 98 % of control | dose: 400.0 mg/kg/injection, schedule: Q01DX001 (ip), vehicle: other 95 % of control

C=C1C(=O)N(C)C(C(=O)OC)CC1(O)C(CC)C(=O)OC (configuration not stated)
inactive: dose: 18.7 mg/kg/injection, schedule: Q01DX001 (ip), vehicle: saline 94 % of control | dose: 37.5 mg/kg/injection, schedule: Q01DX001 (ip), vehicle: saline 98 % of control | [12] 117 % of control | [13] 102 % of control

CCCCCC[N+](C)(C)CCOC(=O)C1C2CC3OC(=O)C1C3C2 (configuration not stated)
inactive: [6] 97 % of control

O=C(O)c1cccc(S)c1
inactive: [14] 113 % of control | [15] 113 % of control

COc1ccc(C(=O)c2ccc(C)cc2)cc1
inactive: [7] 102 % of control | [1] 95 % of control | [8] 105 % of control | [2] 101 % of control | dose: 400.0 mg/kg/injection, schedule: Q01DX009 (ip), vehicle: Klucel (hydroxypropylcellulose) (HPC) 96 % of control | [3] 102 % of control

C/C(=C\n1ccccc1=N)C(=O)c1ccc(F)cc1
inactive: [1] 96 % of control | [2] 98 % of control | [3] 100 % of control

NC(=S)N/N=C\c1nccc2c(C(=O)O)cccc12
inactive: dose: 100.0 mg/kg/injection, schedule: Q04DX002 (ip), vehicle: saline 106 % of control | dose: 200.0 mg/kg/injection, schedule: Q04DX002 (ip), vehicle: saline 106 % of control

CCOC(=O)c1c(/N=C/c2ccc3c(c2)OCO3)sc2c1CCCC2
inactive: [14] 98 % of control | [15] 95 % of control | dose: 400.0 mg/kg/injection, schedule: Q04DX002 (ip), vehicle: saline with Tween-80 95 % of control

CCCCCCCC[As](=O)(O)CCCCCCCC
inactive: dose: 50.0 mg/kg/injection, schedule: Q01DX001 (ip), vehicle: saline 101 % of control | [16] 101 % of control | [17] 98 % of control | dose: 400.0 mg/kg/injection, schedule: Q01DX001 (ip), vehicle: saline 107 % of control

CCOC(=O)c1ccc(N(CCC(=O)COC(C)=O)C(C)=O)cc1
inactive: [9] 94 % of control | [10] 100 % of control | [11] 102 % of control

CCOC(=O)c1ccc2ccccc2n1
inactive: [12] 109 % of control | [13] 96 % of control

ClC1=NC(Cl)C(Cl)=N/C1=N\c1ncn[nH]1 (configuration not stated)
inactive: dose: 6.25 mg/kg/injection, schedule: Q01DX009 (ip), vehicle: saline with Tween-80 103 % of control | dose: 12.5 mg/kg/injection, schedule: Q01DX009 (ip), vehicle: saline with Tween-80 97 % of control | [4] 105 % of control | dose: 31.25 mg/kg/injection, schedule: Q01DX009 (ip), vehicle: saline with Tween-80 87 % of control

CC(C)=C(Br)c1c(C)cc(C)c(Nc2ccc([N+](=O)[O-])cc2)c1C
inactive: [6] 94 % of control | dose: 200.0 mg/kg/injection, schedule: Q04DX003 (ip), vehicle: saline 91 % of control | dose: 400.0 mg/kg/injection, schedule: Q04DX003 (ip), vehicle: saline 91 % of control

CN(C)c1ccc(NC(=O)Nc2cccc(Cl)c2)cc1
inactive: dose: 100.0 mg/kg/injection, schedule: Q01DX009 (ip), vehicle: saline with Tween-80 91 % of control | [5] 94 % of control | dose: 200.0 mg/kg/injection, schedule: Q01DX009 (ip), vehicle: saline with Tween-80 94 % of control | dose: 200.0 mg/kg/injection, schedule: Q04DX003 (ip), vehicle: saline with Tween-80 100 % of control | dose: 400.0 mg/kg/injection, schedule: Q01DX009 (ip), vehicle: saline with Tween-80 92 % of control | dose: 400.0 mg/kg/injection, schedule: Q04DX003 (ip), vehicle: saline with Tween-80 92 % of control

CC[N+](C)(CC)CCC[n+]1c(-c2ccccc2)c2cc(N)ccc2c2ccc(N)cc21
inactive: dose: 1.56 mg/kg/injection, schedule: Q01DX009 (ip), vehicle: saline 104 % of control | dose: 1.56 mg/kg/injection, schedule: Q04DX003 (ip), vehicle: saline 100 % of control | dose: 3.12 mg/kg/injection, schedule: Q01DX009 (ip), vehicle: saline 109 % of control and 110 % of control | dose: 3.12 mg/kg/injection, schedule: Q04DX003 (ip), vehicle: saline 109 % of control | dose: 6.25 mg/kg/injection, schedule: Q01DX009 (ip), vehicle: saline 100 % of control and 110 % of control | dose: 6.25 mg/kg/injection, schedule: Q04DX003 (ip), vehicle: saline 112 % of control | dose: 6.25 mg/kg/injection, schedule: Q04DX003 (ip), vehicle: water 98 % of control | dose: 12.5 mg/kg/injection, schedule: Q04DX003 (ip), vehicle: water 93 % of control

CC12CCC3C(CCC4CCCCC43C)C1CCC2CO (configuration not stated)
inactive: dose: 100.0 mg/kg/injection, schedule: Q04DX002 (ip), vehicle: DMSO 101 % of control | dose: 200.0 mg/kg/injection, schedule: Q04DX002 (ip), vehicle: DMSO 99 % of control | dose: 400.0 mg/kg/injection, schedule: Q04DX002 (ip), vehicle: DMSO 89 % of control

CC(=O)[O][Pb]([O]C(C)=O)([O]C(C)=O)[c]1ccccc1
inactive: dose: 6.25 mg/kg/injection, schedule: Q01DX009 (ip), vehicle: gum acacia 102 % of control | dose: 12.5 mg/kg/injection, schedule: Q01DX009 (ip), vehicle: gum acacia 98 % of control | dose: 25.0 mg/kg/injection, schedule: Q01DX009 (ip), vehicle: gum acacia 95 % of control | dose: 50.0 mg/kg/injection, schedule: Q01DX009 (ip), vehicle: gum acacia 103 % of control | [16] 97 % of control | dose: 100.0 mg/kg/injection, schedule: Q04DX002 (ip), vehicle: gum acacia 107 % of control | [17] 103 % of control | dose: 200.0 mg/kg/injection, schedule: Q04DX002 (ip), vehicle: gum acacia 103 % of control

Source: PubChem BioAssay AID248 (DTP/NCI, 2004)
